{
  "source": "patent US6740335B1",
  "about": "“Liposomal camptothecin formulations” (priority 1997, dated 2004)",
  "key": {"SW48 human colon tumor": {"tested_on": "SW48 human colon tumor", "assay": "Xenograft efficacy at identical dose, SW48", "assay_type": "in vivo, nude mice", "conditions": "SW48, 9 mg/kg, QD7 × 3, two cycles; for % TGI: day 35, dihydrochloride", "description": "(§1) In all the studies performed, subcutaneous tumors implanted on the anterior flank of nude mice were allowed to grow to an established size of 200+/−50 mm^3 prior to dosing drugs.\n(§2) The xenograft models included the HT29 and SW48 human colon tumor lines, and the KB and KBV head-neck tumors. Drugs were dosed at either 6 or 9 mg/kg intravenously, on a weekly schedule for 3 consecutive weeks. In the SW48 xenograft study, the animals received a total of two cycles of therapy (6 injections), with a 10 day recovery period separating the two therapeutic courses. In the HT29 xenograft study a 12 and 14 mg/kg dose group was added."}, "ES-2 (ovarian carcinoma)": {"tested_on": "ES-2 (ovarian carcinoma)", "assay": "3H-thymidine incorporation cytotoxicity assay, ES-2", "assay_type": "cell-based, human", "conditions": "Homo sapiens; ES-2, 42 h; read-out: Median IC50", "description": "In vitro efficacy screening has been performed using GI147211 and liposomal formulations of GI147211. […] Standard tumor cell-based cytototoxicity assays assessing ^3H-thymidine incorporation were performed.\nTumor cells were seeded into 96-well tissue culture plates (1×10^4 cells/well)≡4 h prior to experimentation. […] Positive and negative (Tris treated) control groups were included on each assay plate. Tumor cells were then labeled with 0.25 μCi of [methyl-^3H] thymidine and incubated for 42 h under tissue culture conditions (37° C., 5% CO2, 100% relative humidity), except for C6, U251, A673 and B16-F1 cells which were incubated for 24 h. Cells were then lysed, harvested onto glass-fiber filters and unincorporated [methyl-^3H] thymidine removed by filter washing. Filters were processed for scintillation counting and cpm-^3H/well determined. […] Data are presented from multiple sets of experimentation, involving multiple liposomal formulations of GI147211."}, "HT29 human colon tumor": {"tested_on": "HT29 human colon tumor", "assay": "Xenograft efficacy at identical dose, HT29", "assay_type": "in vivo", "conditions": "for Log 10 Cell Kill / T-C (time to reach 1,000% Tumor Volume, treated vs control): QD7 × 3; for % TGI: QD7 × 3, day 26", "description": "as §1, §2"}},
  "note": "Where a name gives a salt, the structure may show the parent alone.",
  "data": [
    {"smiles": "CCC1(O)C(=O)OCc2c1cc1n(c2=O)Cc2c-1nc1cc3c(cc1c2CN1CCN(C)CC1)OCCO3", "note": "(stereo in doubt) [GI147211, 7-(4-methylpiperazinomethylene)-10,11-ethylenedioxy-20(S)-camptothecin dihydrochloride]", "values": [
      {"measurement": "Log 10 Cell Kill", "setting": "SW48 human colon tumor", "value": 1.9},
      {"measurement": "T-C (time to reach 1,000% Tumor Volume, treated vs control)", "setting": "SW48 human colon tumor", "value": 40, "unit": "days"},
      {"measurement": "% TGI", "setting": "SW48 human colon tumor", "value": 86, "unit": "%"},
      {"measurement": "% TGI", "setting": "SW48 human colon tumor; listed as free drug", "value": 86, "unit": "%"},
      {"measurement": "IC50", "setting": "ES-2 (ovarian carcinoma)", "value": 0.489, "unit": "ng/mL"},
      {"measurement": "Log 10 Cell Kill", "setting": "HT29 human colon tumor; HT29, 6 mg/kg iv", "value": 0.753},
      {"measurement": "T-C (time to reach 1,000% Tumor Volume, treated vs control)", "setting": "HT29 human colon tumor; HT29, 6 mg/kg iv", "value": 12, "unit": "days"},
      {"measurement": "% TGI", "setting": "HT29 human colon tumor; HT29, 6 mg/kg iv", "value": 48, "unit": "%"},
      {"measurement": "Log 10 Cell Kill", "setting": "HT29 human colon tumor; HT29, 9 mg/kg iv", "value": 0.753},
      {"measurement": "T-C (time to reach 1,000% Tumor Volume, treated vs control)", "setting": "HT29 human colon tumor; HT29, 9 mg/kg iv", "value": 12, "unit": "days"},
      {"measurement": "% TGI", "setting": "HT29 human colon tumor; HT29, 9 mg/kg iv, dihydrochloride", "value": 54, "unit": "%"},
      {"measurement": "% TGI", "setting": "HT29 human colon tumor; HT29, 9 mg/kg iv, listed as free drug, dihydrochloride", "value": 54, "unit": "%"},
      {"measurement": "Log 10 Cell Kill", "setting": "HT29 human colon tumor; HT29, 12 mg/kg iv", "value": 0.815},
      {"measurement": "T-C (time to reach 1,000% Tumor Volume, treated vs control)", "setting": "HT29 human colon tumor; HT29, 12 mg/kg iv", "value": 13, "unit": "days"},
      {"measurement": "% TGI", "setting": "HT29 human colon tumor; HT29, 12 mg/kg iv", "value": 70, "unit": "%"},
      {"measurement": "Log 10 Cell Kill", "setting": "HT29 human colon tumor; HT29, 14 mg/kg iv", "value": 1.94},
      {"measurement": "T-C (time to reach 1,000% Tumor Volume, treated vs control)", "setting": "HT29 human colon tumor; HT29, 14 mg/kg iv", "value": 31, "unit": "days"},
      {"measurement": "% TGI", "setting": "HT29 human colon tumor; HT29, 14 mg/kg iv", "value": 78, "unit": "%"}
    ]}
  ]
}
